Values joined by “and” are separate entries in the source; they are usually repeats but may differ in a detail not shown here. Equal values may be shown once.
Tests used:
[1] = target: T1, TGR5 (Homo sapiens, UniProt Q8TDU6); details: cited from earlier work
T1 construct: host or cells: CHO cells
T1 sequence (Q8TDU6 1-330): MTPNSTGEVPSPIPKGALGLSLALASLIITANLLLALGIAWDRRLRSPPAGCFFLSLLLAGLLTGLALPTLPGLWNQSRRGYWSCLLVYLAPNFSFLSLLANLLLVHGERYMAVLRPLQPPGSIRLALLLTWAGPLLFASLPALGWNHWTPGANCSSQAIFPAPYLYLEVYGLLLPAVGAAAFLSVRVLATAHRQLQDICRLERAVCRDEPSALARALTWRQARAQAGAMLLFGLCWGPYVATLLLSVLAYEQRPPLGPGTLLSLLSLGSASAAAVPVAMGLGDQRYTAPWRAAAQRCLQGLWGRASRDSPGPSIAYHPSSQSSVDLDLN

[2] = test system: FXR; details: cited from earlier work
[3] = target: T1, TGR5; experiment: TGR5 cAMP assay in CHO cells transfected with TGR5 (cAMP Hunter eXpress, Discover X); format: cell-based
Protocol: TGR5 agonist activity was evaluated by transfecting CHO cells with TGR5 using the Discover X expression kit (cAMP Hunter eXpress GPCR Assay, Discover X Fremont, CA). Cells were incubated with test compounds for 0.5 h, and intracellular cAMP levels were measured using the multi-mode microplate reader.
(§1) TGR5 agonist activity was evaluated by transfecting CHO cells with TGR5 using the Discover X expression kit (cAMP Hunter eXpress Assay Kit, Discover X Fremont, CA, USA). Cells were incubated with the test compounds for 0.5 h, and intracellular cAMP levels were measured using Multi-Mode Microplate Reader (FlexStation 3, Molecular Devices Inc., San Jose, CA, USA).
Each compound was tested at concentrations of 10, 1, or 0.1 µM in duplicate (n = 2), with the average value shown.
S4. In vitro, in vivo assay, and selectvity. […]
In vitro TGR5 agonist assay protocol
as §1
Each compound was tested at concentrations of 10, 1, or 0.1 µM in duplicate (n=2), with the […]
parameter logistic equation, Y = min + (max - min)/(1 + 10^(n * (log10(EC50) - log10(conc)))), in […]

[4] = target: T2, FXR (Homo sapiens, UniProt Q96RI1); experiment: CHO cell-based FXR luciferase reporter assay (Indigo Biosciences); details: for FXR Efficacy (%) (0.1 µM) / FXR Efficacy (%) (1 µM): % vs OCA 1 µM as 100%
T2 construct: host or cells: CHO cells
T2 sequence (Q96RI1 1-486): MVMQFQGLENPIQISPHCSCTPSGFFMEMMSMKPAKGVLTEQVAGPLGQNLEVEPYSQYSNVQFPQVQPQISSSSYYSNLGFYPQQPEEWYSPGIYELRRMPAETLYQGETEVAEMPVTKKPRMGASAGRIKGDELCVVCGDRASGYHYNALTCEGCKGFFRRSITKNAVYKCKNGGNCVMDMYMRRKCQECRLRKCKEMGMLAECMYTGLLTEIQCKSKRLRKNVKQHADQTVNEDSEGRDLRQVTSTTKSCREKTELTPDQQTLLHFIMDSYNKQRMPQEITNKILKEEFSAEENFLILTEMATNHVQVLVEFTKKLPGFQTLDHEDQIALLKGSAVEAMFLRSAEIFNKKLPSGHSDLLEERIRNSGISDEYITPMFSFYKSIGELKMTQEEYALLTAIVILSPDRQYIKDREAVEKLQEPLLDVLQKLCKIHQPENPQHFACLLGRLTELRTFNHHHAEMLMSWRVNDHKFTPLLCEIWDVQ
Protocol: To evaluate direct agonist activities against FXR, test compounds were evaluated using a CHO cell-based FXR assay by Indigo Biosciences (State College, PA), in which cells were transfected with an FXR luciferase reporter system.
To directly evaluate the in vitro agonist activity towards FXR, test compounds were evaluated in CHO cells transfected with FXR responsive luciferase reporter (Nuclear Receptor & In Vitro Toxicology Solutions, Indigo Biosciences, State College, PA, USA). […] Each compound was tested in duplicate, and the average value was reported[35],[36].
(§2) The cell recovery medium (CRM, Human Farnesoid X Receptor (NR1H4, FXR reporter assay system, Indigo Biosciences, State College, PA, USA) and compound screening medium (CSM, Human Farnesoid X Receptor (NR1H4, FXR reporter assay system, Indigo Biosciences, State College, PA, USA) were removed from the freezer and thawed in a water bath at 37 °C. Test compounds were dissolved in dimethyl sulfoxide (DMSO, FUJIFILM Wako Pure Chemical Corporation, Osaka city, Osaka, Japan), and the treatment medium was prepared and diluted with CSM to achieve a final concentration of 0.2% total DMSO. The reporter cells were thawed by transferring 3.3 mL CRM at 37 °C into tubes of frozen cells. The tube containing reporter cells was recapped, and it was immediately place in a 37 °C water bath for 5 min. The reporter cells were gently inverted several times, and 100 µL cell suspension was dispensed into each well. One hundred microliters of treatment media was added into wells. Subsequently, the assay plate was kept at 37 °C, and it was incubated with 5% CO2 for 22 h. To prepare luciferase detection reagent (LDR), the detection substrate was gently mixed with detection buffer, media contents were removed from each well, and 100 µL LDR was added to each well of the assay plate. The assay plate was allowed to rest at room temperature for 5 min, and luminescence was quantified using the Multi-Mode Microplate Reader (FlexStation 3, Molecular Devices Inc., San Jose, CA, USA)[36].
S4. In vitro, in vivo assay, and selectvity.
To directly evaluate the in vitro agonist activity towards FXR, test compounds were evaluated in CHO cells transfected with FXR responsive luciferase reporter (Nuclear Receptor & In Vitro Toxicology Solutions, Indigo Biosciences, State College, PA, USA). Cells were incubated with […]
(FlexStation 3, Molecular Devices Inc., San Jose, CA, USA). Efficacies are reported relative to […]
reporter on of 1 µM. Each compound was tested in duplicate, and the average value was […]
as §2, with “sulfoxide (DMSO ,” for “sulfoxide (DMSO,”, “Osaka, Jap an),” for “Osaka, Japan),”, “a 37°C” for “a 37 °C”, “5% CO 2” for “5% CO2”, “using […]” for “using the Multi-Mode Microplate Reader (FlexStation 3, Molecular Devices Inc., San Jose, CA, USA)[36].”

Row | Structure (SMILES) | Reported TGR5 activity (in words) [1] | Reported FXR activity (in words) [2] | TGR5 Efficacy (%) (0.1 µM) ([3]; 0.1 µM, % vs INT-767 10 µM as 100%) | TGR5 Efficacy (%) (1 µM) ([3]; % vs INT-767 10 µM as 100%) | FXR Efficacy (%) (0.1 µM) [4] | FXR Efficacy (%) (1 µM) [4] | TGR5 Efficacy (%) (10 µM) ([3]; % vs INT-767 10 µM as 100%) | TGR5 agonist activity (in words) [3] | FXR agonist activity (in words) [4]
1 | Cc1cc2c(CN(C(=O)c3ccncc3C)c3ccc(F)cc3C)cccc2[nH]1 [Compound 8, reference compound] | TGR5 agonist | no agonist or antagonist activity against FXR | 84.7% | 84.7% and 66.1% |  |  |  |  | 
2 | Cc1cnccc1C(=O)N(CC12CCC(c3ccc4c(c3)OCO4)(CC1)CC2)c1cc(Cl)cc(Cl)c1 [Compound 20n] |  |  |  |  | 73.5% | 98.9% | 67.6% |  | 
3 | COc1cc(Cl)cc(N(CC23CCC(c4ccc5c(c4)OCO5)(CC2)CC3)C(=O)c2ccncc2C)c1 [Compound 20o] |  |  |  | 36.0% | 29.4% | 97.6% | 78.9% |  | 
4 | Cc1cnccc1C(=O)N(CC12CCC(c3ccc4c(c3)OCCO4)(CC1)CC2)c1cc(Cl)cc(Cl)c1 [Compound 20r] |  |  |  | 57.1% | 28.0% | 72.6% |  | most potent TGR5 activity | 
5 | Cc1cnccc1C(=O)N(CC12CCC(c3ccc(N(C)C)cc3)(CC1)CC2)c1cc(Cl)cc(Cl)c1 [Compound 20s] |  |  |  | 18.9% | 56.4% | 95.3% |  |  | high potency against FXR
6 | COc1cc(Cl)cc(N(CC23CCC(c4ccc(N(C)C)cc4)(CC2)CC3)C(=O)c2ccncc2C)c1 [Compound 20t] |  |  |  | 25.0% | 32.8% | 77.3% |  |  | 
7 | COc1ncc(C23CCC(CN(C(=O)c4ccncc4C)c4cc(Cl)cc(Cl)c4)(CC2)CC3)cc1C [Compound 20u] |  |  |  | 12.1% | 69.2% | 76.2% |  |  | 
8 | COc1ccc(C23CCC(CN(C(=O)c4ccncc4C)c4cc(Cl)cc(Cl)c4)(CC2)CC3)cc1Cl [Compound 20v] |  |  |  | 33.5% | 65.4% | 79.6% |  |  | 
